Legend:
Experiment in all cases: Post-emergence application in field trials, herbicidal activity (damage scale 0 to 100%)
Assay type in all cases: in vivo
[1] = test system: Amaranthus retroflexus (AMARE); conditions: stage 31-49, height 10-12 cm
Procedure: (§1) In the examples below, using the method of S. R. Colby (1967) “Calculating synergistic and antagonistic responses of herbicide combinations”, Weeds 15, p. 22ff., the value E, which is expected if the activity of the individual active compounds is only additive, was calculated:
(§2) [formula] • wherein • X=percent activity using active herbicide A at an application rate a; • Y=percent activity using active herbicide B (e.g. pyroxasulfone) at an application rate b; • E=expected activity (in %) by A+B at application rates a+b.
(§3) For 3-component mixtures the synergistic response was calculated as described in: Ferry, Nancy; Stanley, Bruce H.; and Armel, Gregory (2005). “DESIGN AND ANALYSIS OF BIOLOGICAL ASSAYS OF MIXTURES,” Conference on Applied Statistics in Agriculture. https://doi.org/10.4148/2475-7772.1133. According to this publication, the Colby calculation can be generalized to a third mixing partner, Z, employing the following formula: […]
(§4) If the value found experimentally is higher than the value E calculated according to Colby, a synergistic effect is present.
(§5) On field test sites, natural weed infestation or seeded weeds were treated post-emergence of the weeds.
(§6) In the field trials, the weeds were treated as indicated below.
(§7) In the following experiments, the herbicidal activity for the individual herbicidal compositions (solo and mixture applications) was assessed at the indicated days after treatment (DAT). The assessments for the damage on undesired weeds caused by the composition was carried out using a scale from 0 to 100%, compared to the untreated control plants. Here, 0 means no damage and 100 means complete destruction of the plants.
(§8) Herbicide A-1 (342 g/l) and pyroxasulfone (500 g/l) were, together with addition of 0.25 v/v % MSO (methylated seed oil) as adjuvant, formulated in 200 l/ha water as distribution medium and sprayed with commercial flat fan nozzles.
(§9) Herbicide A-1 (342 g/l), pyroxasulfone (500 g/l) and trifludimoxazin (500 g/l) were, together with addition of 0.25 v/v % MSO (methylated seed oil) as adjuvant, formulated in 200 l/ha water as distribution medium and sprayed with commercial flat fan nozzles.
(§10) Herbicide A-1 (342 g/I), pyroxasulfone (500 g/l) and glyphosate-isopropylammonium (356 g/l) were, together with addition of 0.25 v/v % MSO (methylated seed oil) as adjuvant, formulated in 200 l/ha water as distribution medium and sprayed with commercial flat fan nozzles.
(§11) Herbicide A-1 (342 g/l), pyroxasulfone (500 g/l) and glufosinate-P-ammonium (211 g/l) were, together with addition of 0.25 v/v % MSO (methylated seed oil) as adjuvant, formulated in 200 l/ha water as distribution medium and sprayed with commercial flat fan nozzles.
(§12) Herbicide A-1 (342 g/l), pyroxasulfone (500 g/l) and 2,4-D-choline (456 g/l) were, together with addition of 0.25 v/v % MSO (methylated seed oil) as adjuvant, formulated in 200 l/ha water as distribution medium and sprayed with commercial flat fan nozzles.

Glycine max (GLXMA) = conditions: 7 DAT; stage 12-13, height 7-11 cm; g ai/ha A-1 12.5, B 70, C-4 12.5
Procedure: as §1, §2, §3, §4, §5, §6, §7, §8, §9, §10, §11, §12

Zea mays (ZEAMX) = conditions: 7 DAT; stage 15-16, height 27-33 cm; g ai/ha A-1 18, B 90, C-4 12.5
Procedure: as §1, §2, §3, §4, §5, §6, §7, §8, §9, §10, §11, §12

[2] = test system: Digitaria sanguinalis (DIGSA); conditions: stage 22, height 10-15 cm
Procedure: as §1, §2, §3, §4, §5, §6, §7, §8, §9, §10, §11, §12

[3] = test system: Setaria verticillata (SETVE); conditions: 7 DAT, stage 21-23, height 8-16 cm
Procedure: as §1, §2, §3, §4, §5, §6, §7, §8, §9, §10, §11, §12

[4] = 7 DAT, g ai/ha A-1 12.5, B 70, C-4 12.5
[5] = 42 DAT, g ai/ha A-1 12.5, B 70, C-4 12.5
[6] = 42 DAT, g ai/ha A-1 18, B 70, C-4 12.5
[7] = 42 DAT, g ai/ha A-1 18, B 90, C-4 12.5

Structure (SMILES) | % Herbicidal activity [1, 4] | % Herbicidal activity [1, 5] | % Herbicidal activity [1, 6] | % Herbicidal activity [1, 7] | % Herbicidal activity (Glycine max (GLXMA)) | % Herbicidal activity (Zea mays (ZEAMX)) | % Herbicidal activity [2, 4] | % Herbicidal activity ([2]; 7 DAT, g ai/ha A-1 18, B 70, C-4 12.5) | % Herbicidal activity ([2]; 7 DAT, g ai/ha A-1 18, B 90, C-4 12.5) | % Herbicidal activity ([2]; 21 DAT, g ai/ha A-1 12.5, B 70, C-4 12.5) | % Herbicidal activity ([2]; 21 DAT, g ai/ha A-1 18, B 70, C-4 12.5) | % Herbicidal activity ([2]; 21 DAT, g ai/ha A-1 18, B 90, C-4 12.5) | % Herbicidal activity [2, 5] | % Herbicidal activity [2, 6] | % Herbicidal activity [2, 7] | % Herbicidal activity ([3]; g ai/ha A-1 18, B 90, C-4 12.5) | % Herbicidal activity ([2]; 7 DAT, g ai/ha A-1 18, B 70, C-8 840) | % Herbicidal activity ([2]; 7 DAT, g ai/ha A-1 18, B 90, C-8 840) | % Herbicidal activity ([3]; g ai/ha A-1 18, B 70, C-8 840) | % Herbicidal activity ([3]; g ai/ha A-1 18, B 90, C-8 840)
C#CCN1C(=O)C(F)(F)Oc2cc(F)c(-n3c(=O)n(C)c(=S)n(C)c3=O)cc21 [C-4, trifludimoxazin] | 80% | 80% | 80% | 80% | 75% | 40% | 30% | 30% | 30% | 30% | 30% | 30% | 20% | 20% | 20% | 40% | – | – | – | –
CC(C)N.O=C(O)CNCP(=O)(O)O [C-8, glyphosate-isopropylammonium] | – | – | – | – | – | – | – | – | – | – | – | – | – | – | – | – | 85% | 85% | 75% | 75%

— patent US12690589B2, “Herbicidal compositions comprising pyroxasulfone” (BASF SE, priority 2024, dated 2026)
